US10131652B2, “Pyrimidinyloxy benzene derivatives as herbicides” (E. I. DU PONT DE NEMOURS AND COMPANY, priority 2014, dated 2018)

Tests used:
Test in all cases: Test D pre-/postemergence plant response
Type in all cases: in vivo
[1] = system: blackgrass (Alopecurus myosuroides); settings: Postemergence; for Blackgrass plant response rating: scale 0 to 100 (0 no effect, 100 complete control); for Plant response rating, Blackgrass: scale 0 to 100, 0 no effect, 100 complete control
Outline: (§1)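 Greenhouse herbicidal response, both pre- and postemergence applications, with solvent/surfactant formulation. Postemergence plants were at 1- to 4-leaf stage. Visual scores 0–100 relative to controls, taken 13 to 15 days later.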

[2] = system: pigweed (Amaranthus retroflexus); settings: Postemergence; for Plant response rating, Pigweed: scale 0 to 100, 0 no effect, 100 complete control
Outline: as §1

[3] = system: yellow nutsedge (Cyperus esculentus); settings: Postemergence; for Plant response rating, Nutsedge, Yellow: scale 0 to 100, 0 no effect, 100 complete control
Outline: as §1

[4] = system: lambsquarters (Chenopodium album); settings: Postemergence; for Plant response rating, Lambsquarters: scale 0 to 100, 0 no effect, 100 complete control
Outline: as §1

[5] = system: barnyardgrass (Echinochloa crus-galli); settings: Postemergence; for Barnyardgrass plant response rating: scale 0 to 100 (0 no effect, 100 complete control); for Plant response rating, Barnyardgrass: scale 0 to 100, 0 no effect, 100 complete control
Outline: as §1

[6] = system: giant foxtail (Setaria faberii); settings: Postemergence; for Foxtail, Giant plant response rating: scale 0 to 100 (0 no effect, 100 complete control); for Plant response rating, Foxtail, Giant: scale 0 to 100, 0 no effect, 100 complete control
Outline: as §1

[7] = system: galium (catchweed bedstraw, Galium aparine); settings: Postemergence; for Plant response rating, Galium: scale 0 to 100, 0 no effect, 100 complete control
Outline: as §1

[8] = system: johnsongrass (Sorghum halepense); settings: Postemergence; for Plant response rating, Johnsongrass: scale 0 to 100, 0 no effect, 100 complete control
Outline: as §1

[9] = system: oilseed rape (Brassica napus); settings: Postemergence; for Plant response rating, Oilseed Rape: scale 0 to 100, 0 no effect, 100 complete control
Outline: as §1

[10] = system: morningglory (Ipomoea coccinea); settings: Postemergence; for Plant response rating, Morningglory: scale 0 to 100, 0 no effect, 100 complete control
Outline: as §1

[11] = system: waterhemp (common waterhemp, Amaranthus rudis); settings: Postemergence; for Plant response rating, Waterhemp: scale 0 to 100, 0 no effect, 100 complete control
Outline: as §1

[12] = system: ragweed (common ragweed, Ambrosia elatior); settings: Postemergence; for Plant response rating, Ragweed: scale 0 to 100, 0 no effect, 100 complete control
Outline: as §1

[13] = system: large (Lg) crabgrass (Digitaria sanguinalis); settings: Postemergence; for Crabgrass, Large plant response rating: scale 0 to 100 (0 no effect, 100 complete control); for Plant response rating, Crabgrass, Large: scale 0 to 100, 0 no effect, 100 complete control
Outline: as §1

corn (Zea mays) = settings: Postemergence; for Corn plant response rating: scale 0 to 100 (0 no effect, 100 complete control); for Plant response rating, Corn: scale 0 to 100, 0 no effect, 100 complete control
Outline: as §1

[14] = system: Italian ryegrass (Lolium multiflorum); settings: Postemergence; for Plant response rating, Ryegrass, Italian: scale 0 to 100, 0 no effect, 100 complete control
Outline: as §1

[15] = system: velvetleaf (Abutilon theophrasti); settings: Postemergence; for Plant response rating, Velvetleaf: scale 0 to 100, 0 no effect, 100 complete control
Outline: as §1

soybean (Glycine max) = settings: Postemergence; for Plant response rating, Soybean: scale 0 to 100, 0 no effect, 100 complete control
Outline: as §1

[16] = system: winter wheat (Triticum aestivum); settings: Postemergence; for Plant response rating, Wheat: scale 0 to 100, 0 no effect, 100 complete control
Outline: as §1

[17] = 31 g ai/ha, scale 0 to 100 (0 no effect, 100 complete control)

Structure (SMILES): Cc1cc(-c2ccccc2Oc2ncc(Cl)cn2)no1 [Compound 153]
- Blackgrass plant response rating ([1]; 16 g ai/ha): 0
- Blackgrass plant response rating ([1]; 31 g ai/ha): 0
- Plant response rating, Blackgrass ([1]; 62 g ai/ha): 0
- Plant response rating, Blackgrass ([1]; 125 g ai/ha): 0
- Pigweed plant response rating [2, 17]: 20
- Plant response rating, Pigweed ([2]; 62 g ai/ha): 40
- Plant response rating, Pigweed ([2]; 125 g ai/ha): 70
- Nutsedge, Yellow plant response rating [3, 17]: 0
- Plant response rating, Nutsedge, Yellow ([3]; 62 g ai/ha): 5
- Plant response rating, Nutsedge, Yellow ([3]; 125 g ai/ha): 5
- Lambsquarters plant response rating [4, 17]: 35
- Plant response rating, Lambsquarters ([4]; 62 g ai/ha): 30
- Plant response rating, Lambsquarters ([4]; 125 g ai/ha): 50
- Barnyardgrass plant response rating ([5]; 16 g ai/ha): 5
- Barnyardgrass plant response rating ([5]; 31 g ai/ha): 5
- Plant response rating, Barnyardgrass ([5]; 62 g ai/ha): 5
- Plant response rating, Barnyardgrass ([5]; 125 g ai/ha): 5
- Foxtail, Giant plant response rating ([6]; 16 g ai/ha): 0
- Foxtail, Giant plant response rating ([6]; 31 g ai/ha): 0
- Plant response rating, Foxtail, Giant ([6]; 62 g ai/ha): 5
- Plant response rating, Foxtail, Giant ([6]; 125 g ai/ha): 5
- Galium plant response rating [7, 17]: 70
- Plant response rating, Galium ([7]; 62 g ai/ha): 70
- Plant response rating, Galium ([7]; 125 g ai/ha): 80
- Johnsongrass plant response rating [8, 17]: 0
- Plant response rating, Johnsongrass ([8]; 62 g ai/ha): 5
- Plant response rating, Johnsongrass ([8]; 125 g ai/ha): 10
- Oilseed Rape plant response rating [9, 17]: 40
- Plant response rating, Oilseed Rape ([9]; 62 g ai/ha): 60
- Plant response rating, Oilseed Rape ([9]; 125 g ai/ha): 85
- Morningglory plant response rating [10, 17]: 5
- Plant response rating, Morningglory ([10]; 62 g ai/ha): 15
- Plant response rating, Morningglory ([10]; 125 g ai/ha): 25
- Waterhemp plant response rating [11, 17]: 10
- Plant response rating, Waterhemp ([11]; 62 g ai/ha): 35
- Plant response rating, Waterhemp ([11]; 125 g ai/ha): 65
- Ragweed plant response rating [12, 17]: 10
- Plant response rating, Ragweed ([12]; 62 g ai/ha): 25
- Plant response rating, Ragweed ([12]; 125 g ai/ha): 55
- Crabgrass, Large plant response rating ([13]; 16 g ai/ha): 0
- Crabgrass, Large plant response rating ([13]; 31 g ai/ha): 5
- Plant response rating, Crabgrass, Large ([13]; 62 g ai/ha): 5
- Plant response rating, Crabgrass, Large ([13]; 125 g ai/ha): 10
- Corn plant response rating (corn (Zea mays); 16 g ai/ha): 0
- Corn plant response rating (corn (Zea mays); 31 g ai/ha): 0
- Plant response rating, Corn (corn (Zea mays); 62 g ai/ha): 5
- Plant response rating, Corn (corn (Zea mays); 125 g ai/ha): 5
- Ryegrass, Italian plant response rating [14, 17]: 0
- Plant response rating, Ryegrass, Italian ([14]; 62 g ai/ha): 0
- Plant response rating, Ryegrass, Italian ([14]; 125 g ai/ha): 0
- Velvetleaf plant response rating [15, 17]: 20
- Plant response rating, Velvetleaf ([15]; 62 g ai/ha): 60
- Plant response rating, Velvetleaf ([15]; 125 g ai/ha): 50
- Soybean plant response rating (soybean (Glycine max); [17]): 40
- Plant response rating, Soybean (soybean (Glycine max); 62 g ai/ha): 70
- Plant response rating, Soybean (soybean (Glycine max); 125 g ai/ha): 90
- Wheat plant response rating [16, 17]: 0
- Plant response rating, Wheat ([16]; 62 g ai/ha): 5
- Plant response rating, Wheat ([16]; 125 g ai/ha): 10
